Laboratory results published in ChEMBL document CHEMBL1201862, “PubChem BioAssay data set” (2004).
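A five-concentration, 48-hour dose response in 96-well plates underlies each endpoint, interpolated linearly between surrounding concentrations. GI50 = concentration required for 50% inhibition of growth.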 Activity calls are given as the source filed them. Rule as the data show it: active = GI50 up to about 1.1 µM and inactive = higher.

Tests used:
Assay in all cases: DTP human tumour cell line panel, 48 h
SF-268 = system: SF-268
SN12C = system: SN12C
SNB-78 = system: SNB-78
HCT-116 = system: HCT-116
HOP-18 = system: HOP-18
M19-MEL = system: M19-MEL
OVCAR-4 = system: OVCAR-4
SNB-19 = system: SNB-19
LOX IMVI = system: LOX IMVI
OVCAR-8 = system: OVCAR-8
SW-620 = system: SW-620
HL-60 = system: HL-60
OVCAR-3 = system: OVCAR-3
NCI-H23 = system: NCI-H23
A549 = system: A549
HOP-62 = system: HOP-62
SF-539 = system: SF-539
MOLT-4 = system: MOLT-4
COLO 205 = system: COLO 205
DMS-273 = system: DMS-273
SK-MEL-28 = system: SK-MEL-28
UACC-62 = system: UACC-62
SF-295 = system: SF-295
HCC 2998 = system: HCC 2998
XF498 = system: XF498
A498 = system: A498
OVCAR-5 = system: OVCAR-5
EKVX = system: EKVX
UO-31 = system: UO-31
HOP-92 = system: HOP-92
SK-MEL-2 = system: SK-MEL-2
MCF7 = system: MCF7
RXF 393 = system: RXF 393
IGROV-1 = system: IGROV-1
DLD-1 = system: DLD-1
NCI-H460 = system: NCI-H460
SK-MEL-5 = system: SK-MEL-5
U-251 = system: U-251
UACC-257 = system: UACC-257
CCRF-CEM = system: CCRF-CEM
SK-OV-3 = system: SK-OV-3
DMS-114 = system: DMS-114
HT-29 = system: HT-29
SNB-75 = system: SNB-75
NCI-H522 = system: NCI-H522
HCT-15 = system: HCT-15
Malme-3M = system: Malme-3M
NCI/ADR-RES = system: NCI/ADR-RES
KM-20L2 = system: KM-20L2
CAKI-1 = system: CAKI-1
K562 = system: K562
RPMI-8226 = system: RPMI-8226
M14 = system: M14
LXFL 529 = system: LXFL 529
TK-10 = system: TK-10
NCI-H226 = system: NCI-H226
SR = system: SR
ACHN = system: ACHN
KM12 = system: KM12
786-0 = system: 786-0

Measured: GI50

O=C(O)C1Cc2c([nH]c3ccccc23)C=N1 (stereo unspecified)
> 100 µM: HCT-15
inactive: SF-268 > 100 µM | SN12C > 100 µM | SNB-78 > 100 µM | HCT-116 > 100 µM | HOP-18 30.3 µM | M19-MEL > 100 µM | OVCAR-4 > 100 µM | SNB-19 > 100 µM | LOX IMVI > 100 µM | OVCAR-8 > 100 µM | SW-620 > 100 µM | HL-60 > 100 µM | OVCAR-3 > 100 µM | NCI-H23 > 100 µM | A549 > 100 µM | HOP-62 > 100 µM | SF-539 > 100 µM | MOLT-4 > 100 µM | COLO 205 > 100 µM | DMS-273 > 100 µM | SK-MEL-28 > 100 µM | UACC-62 > 100 µM | SF-295 > 100 µM | HCC 2998 > 100 µM | XF498 > 100 µM | A498 > 100 µM | OVCAR-5 > 100 µM | EKVX > 100 µM | UO-31 > 100 µM | HOP-92 > 74.1 µM | SK-MEL-2 > 100 µM | MCF7 > 100 µM | RXF 393 > 100 µM | IGROV-1 > 100 µM | DLD-1 > 100 µM | NCI-H460 > 100 µM | SK-MEL-5 > 100 µM | U-251 > 100 µM | UACC-257 > 100 µM | CCRF-CEM > 100 µM | SK-OV-3 > 100 µM | DMS-114 > 100 µM | HT-29 > 100 µM | SNB-75 > 100 µM | NCI-H522 > 100 µM | Malme-3M > 100 µM | NCI/ADR-RES > 100 µM | KM-20L2 > 100 µM | CAKI-1 > 100 µM | K562 > 100 µM | RPMI-8226 > 100 µM

CCCc1c(C(=O)OCC)[nH]c(-c2ccc(-c3[nH]c(C(=O)OCC)c(CCC)c3C(=O)OCC)o2)c1C(=O)OCC
> 100 µM: HCT-15
inactive: SF-268 > 100 µM | SN12C > 100 µM | SNB-78 > 100 µM | HCT-116 > 100 µM | HOP-18 > 100 µM | M14 > 100 µM | M19-MEL > 100 µM | OVCAR-4 > 100 µM | SNB-19 > 100 µM | LOX IMVI > 100 µM | OVCAR-8 > 100 µM | SW-620 > 100 µM | LXFL 529 > 100 µM | HL-60 > 100 µM | OVCAR-3 > 100 µM | NCI-H23 > 100 µM | A549 > 100 µM | SF-539 > 100 µM | MOLT-4 > 100 µM | COLO 205 > 100 µM | TK-10 > 100 µM | DMS-273 > 100 µM | SK-MEL-28 > 100 µM | UACC-62 > 100 µM | SF-295 > 100 µM | NCI-H226 > 100 µM | HCC 2998 > 100 µM | XF498 > 100 µM | A498 > 100 µM | OVCAR-5 > 100 µM | EKVX > 100 µM | UO-31 > 100 µM | HOP-92 > 100 µM | SR > 100 µM | SK-MEL-2 > 100 µM | RXF 393 > 100 µM | IGROV-1 > 100 µM | DLD-1 > 100 µM | ACHN > 100 µM | KM12 > 100 µM | NCI-H460 > 100 µM | SK-MEL-5 > 100 µM | U-251 > 100 µM | UACC-257 > 100 µM | CCRF-CEM > 100 µM | SK-OV-3 > 100 µM | DMS-114 > 100 µM | HT-29 > 100 µM | SNB-75 > 100 µM | 786-0 > 100 µM | NCI-H522 > 100 µM | Malme-3M > 100 µM | KM-20L2 > 100 µM | CAKI-1 > 100 µM | K562 > 100 µM | RPMI-8226 > 100 µM

N#CNC1=NC(CCCC(=O)Nc2cccc([N+](=O)[O-])c2)=C(c2nc3ccccc3[nH]2)C(N)N1 (stereo unspecified)
inactive: SF-268 > 100 µM | SN12C > 100 µM | HOP-18 64.9 µM | M14 > 100 µM | M19-MEL > 100 µM | OVCAR-4 > 100 µM | SNB-19 > 100 µM | LOX IMVI > 100 µM | OVCAR-8 > 100 µM | SW-620 > 100 µM | LXFL 529 > 100 µM | HL-60 > 100 µM | OVCAR-3 > 100 µM | NCI-H23 > 100 µM | A549 > 100 µM | HOP-62 > 100 µM | SF-539 > 100 µM | MOLT-4 > 100 µM | COLO 205 > 100 µM | TK-10 > 100 µM | DMS-273 > 100 µM | SK-MEL-28 > 100 µM | UACC-62 > 100 µM | SF-295 > 100 µM | NCI-H226 > 100 µM | HCC 2998 > 100 µM | XF498 > 100 µM | OVCAR-5 > 100 µM | EKVX > 100 µM | UO-31 > 100 µM | SK-MEL-2 > 100 µM | RXF 393 > 100 µM | IGROV-1 > 100 µM | DLD-1 > 100 µM | ACHN > 100 µM | KM12 > 100 µM | NCI-H460 > 100 µM | SK-MEL-5 > 100 µM | UACC-257 > 100 µM | CCRF-CEM > 100 µM | SK-OV-3 > 100 µM | DMS-114 > 100 µM | HT-29 > 100 µM | SNB-75 > 100 µM | 786-0 > 100 µM | NCI-H522 > 100 µM | Malme-3M > 100 µM | KM-20L2 > 100 µM | CAKI-1 > 100 µM | K562 > 100 µM | RPMI-8226 > 100 µM
76.7 µM: HCT-15
